How the values were obtained:
[1] = test system: E. coli ∆nfsA; assay: microbe, parasite or virus in culture; type: cell-based; conditions: Escherichia coli, read-out: MIC ∆nfsA
Method: (§1) To assess the biological relevance of the interacting protein and establish the link between nitroreductases to the antibacterial activity of NTC compounds, single (ΔnfsA or ΔnfsB) and double knockouts (ΔnfsA & ΔnfsB) of nitroreductases were generated by phage transduction using strains from the Keio collection.
(§2) The inoculum used for all the experiments is derived from a single seed lot that is maintained as glycerol stocks at −80 °C and are sub cultured on LB plate for isolated colonies. Single colony of each strain is grown in M9 medium. All test compound stocks and dilutions are prepared in DMSO. Serial two-fold dilutions of compounds are prepared separately, with the concentrations ranging from 2 mg/mL to 0.015 mg/mL. To 150 µl (3–7 × 10^5 CFU/ml) of bacterial culture in 96 well microtitre plates, 3 μL compound from each of the dilutions is added to respective wells to obtain final concentrations ranging from 40 µg/mL to 0.3 µg/mL of the test compounds. Media control, culture control and appropriate reference drug controls are included. […] Growth is monitored by checking absorbance at 600 nm (A600). […] The samples from MIC and above concentrations are plated for MBC (Minimum Bactericidal Concentration). The samples are diluted 1:10 and plated on LB agar plates. […] The killing kinetics is determined by enumerating survivors at various time points following compound exposure. E. coli cells (~10^7 CFU/ml; A600 of 0.1) are treated with various concentrations (40 µg/mL to 0.3 µg/mL) of compounds in a 96-well microtitre plate. At various time intervals (0 to 8 h), 30 μl volumes of treated cultures are serially diluted and plated on LB agar plates. […] Data is expressed as the log10 CFU for each drug treatment.

[2] = test system: E. coli ∆nfsA + ∆nfsB; assay: microbe, parasite or virus in culture; type: cell-based; conditions: for MIC: Escherichia coli, read-out: MIC ∆nfsA + ∆nfsB
Method: as §1, §2

[3] = test system: E. coli clinical isolates; assay: MIC on panel of E. coli clinical isolates; type: cell-based; conditions: for MIC Range / MIC50 / MIC90: 75 E.coli clinical isolates; for MIC50 / MIC90: Escherichia coli; for MIC50: 50% clinical isolates; for MIC90: 90% clinical isolates
[4] = target: T1, AcrB (Escherichia coli, UniProt P31224); assay: Thermal shift assay with CPM dye; design: species or system E. coli; conditions: AcrB vs apo-protein; > 1°C implies binding
T1 construct: Full length acrB gene was amplified from E. coli; BW25113; His-tag (C); made in house; host or cells: E. coli C43(DE3), plasmid pET21a
Method: AcrB overexpression protocol is adopted from Du. et al.[31]. Full length acrB gene was amplified from E. coli. BW25113 using Forward Primer 5′-[…]-3′ Reverse Primer 5′-[…]-3′ and cloned into the plasmid pET21a. The resultant plasmid that would express AcrB with a C-terminal His-tag is transformed into E. coli strain C43(DE3). The cells are induced on reaching A600 = 0.6 and transferred to 18 °C. The culture is harvested by centrifugation and re-suspended in Buffer A (100 mM Sodium Phosphate, 100 mM NaCl, 10 mM Imidazole, pH = 7.4, 100 µg/ml protease inhibitor cocktail from Roche and 5 U/ml DNase I and 5 mg/ml lysozyme). The cells are lysed at 15000 psi using Emulsiflex and centrifuged at 8000 g for removing cell debris. The membrane is isolated by centrifuging the resultant supernatant at 125000 g (see Coomassie stained SDS-PAGE of the purified protein Figure S9). Membrane solubilisation is done using Buffer A and 1.5% DDM (n-Dodecyl-β-D-Maltoside). Ni-NTA chromatography is used to purify the His-tagged protein and eluted in Buffer A with 300 mM Imidazole and 1.5% DDM.
The assay is performed according to protocols established elsewhere. CPM (N- [4-(7-diethylamino-4-methyl-3-coumarinyl) phenyl] maleimide) is a thiol specific fluorochrome (Excitation 387 nm, Emission 463 nm) and is non-fluorescent in an unbound state. The proteins, on thermal unfolding exposes cysteines allowing the CPM to bind and fluoresce. […]. The thermal denaturation is performed in a fluorimeter that is heated from 25 to 90 °C at a ramp rate of 1 °C/min. The Tm is calculated by analysing the melting profiles using Boltzmann Sigmoid function (GraphPad Prism) and ∆Tm is calculated by measuring the difference between the Tm of inhibitor bound protein and the apo-protein.

T1 sequence (P31224 whole entry): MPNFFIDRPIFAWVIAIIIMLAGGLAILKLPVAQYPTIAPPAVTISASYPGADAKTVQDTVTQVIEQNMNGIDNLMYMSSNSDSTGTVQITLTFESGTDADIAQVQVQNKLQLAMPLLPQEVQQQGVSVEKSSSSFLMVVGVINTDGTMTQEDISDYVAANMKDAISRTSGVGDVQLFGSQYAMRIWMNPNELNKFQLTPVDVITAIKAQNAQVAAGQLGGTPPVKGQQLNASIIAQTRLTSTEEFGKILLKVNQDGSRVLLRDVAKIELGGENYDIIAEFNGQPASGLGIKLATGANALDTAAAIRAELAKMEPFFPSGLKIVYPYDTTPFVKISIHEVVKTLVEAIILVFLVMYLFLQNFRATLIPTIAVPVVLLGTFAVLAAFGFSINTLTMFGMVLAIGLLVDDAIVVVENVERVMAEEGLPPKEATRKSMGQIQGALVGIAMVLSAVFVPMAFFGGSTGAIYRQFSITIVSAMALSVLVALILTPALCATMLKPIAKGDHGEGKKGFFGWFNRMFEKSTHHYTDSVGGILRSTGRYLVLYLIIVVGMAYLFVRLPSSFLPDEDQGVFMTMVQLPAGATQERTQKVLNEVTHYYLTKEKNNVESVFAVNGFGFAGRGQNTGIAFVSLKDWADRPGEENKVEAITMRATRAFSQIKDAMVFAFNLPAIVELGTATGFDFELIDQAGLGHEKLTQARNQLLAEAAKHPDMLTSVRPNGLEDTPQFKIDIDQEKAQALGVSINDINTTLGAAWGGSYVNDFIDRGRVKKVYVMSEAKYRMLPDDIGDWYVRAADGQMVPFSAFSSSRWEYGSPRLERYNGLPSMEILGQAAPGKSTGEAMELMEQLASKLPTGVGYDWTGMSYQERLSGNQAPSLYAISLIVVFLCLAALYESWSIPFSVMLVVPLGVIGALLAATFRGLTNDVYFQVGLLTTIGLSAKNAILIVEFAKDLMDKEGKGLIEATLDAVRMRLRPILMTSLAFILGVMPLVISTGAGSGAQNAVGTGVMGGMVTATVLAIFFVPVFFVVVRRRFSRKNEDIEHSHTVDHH

O=C(Nc1nc(-c2ccc(F)cc2F)cs1)c1ccc([N+](=O)[O-])s1 [compound 12, N-(4-(2,4-difluorophenyl)thiazol-2-yl)-5-nitrothiophene-2-carboxamide]
2 µg/mL: MIC ([3]; strain SEC007) | MIC ([3]; strain SEC011) | MIC ([3]; strain SEC014) | MIC ([3]; strain SEC016) | MIC ([3]; strain SEC018) | MIC ([3]; strain SEC019) | MIC ([3]; strain SEC022) | MIC ([3]; strain SEC024) | MIC ([3]; strain SEC025) | MIC ([3]; strain SEC026) | MIC ([3]; strain SEC029) | MIC ([3]; strain SEC031) | MIC ([3]; strain SEC033) | MIC ([3]; strain SEC034) | MIC ([3]; strain SEC035) | MIC ([3]; strain SEC038) | MIC ([3]; strain SEC039) | MIC ([3]; strain SEC040) | MIC ([3]; strain SEC041) | MIC ([3]; strain SEC043) | MIC ([3]; strain SEC045) | MIC ([3]; strain SEC046) | MIC ([3]; strain SEC047) | MIC ([3]; strain SEC053) | MIC ([3]; strain SEC054) | MIC ([3]; strain SEC055) | MIC ([3]; strain SEC059) | MIC ([3]; strain SEC060) | MIC ([3]; strain SEC061) | MIC ([3]; strain SEC063) | MIC ([3]; strain SEC065) | MIC ([3]; strain SEC067) | MIC ([3]; strain SEC071) | MIC ([3]; strain SEC072) | MIC ([3]; strain SEC074) | MIC ([3]; strain SEC076) | MIC ([3]; strain SEC077)
1 µg/mL: MIC ([3]; strain SEC012) | MIC ([3]; strain SEC021) | MIC ([3]; strain SEC028) | MIC ([3]; strain SEC037) | MIC ([3]; strain SEC052) | MIC ([3]; strain SEC062)
0.06 to 40 µg/mL: MIC Range [3]
32 µg/mL: MIC ([3]; strain SEC004) | MIC ([3]; strain SEC008) | MIC ([3]; strain SEC013) | MIC ([3]; strain SEC015) | MIC ([3]; strain SEC020) | MIC ([3]; strain SEC023) | MIC ([3]; strain SEC036) | MIC ([3]; strain SEC044) | MIC ([3]; strain SEC048) | MIC ([3]; strain SEC049)
8 µg/mL: MIC ([3]; strain SEC078)
0.68 °C: ∆Tm [4]
4 µg/mL: MIC ([3]; strain SEC001) | MIC ([3]; strain SEC002) | MIC ([3]; strain SEC003) | MIC ([3]; strain SEC005) | MIC ([3]; strain SEC006) | MIC ([3]; strain SEC032) | MIC ([3]; strain SEC042) | MIC ([3]; strain SEC050) | MIC ([3]; strain SEC051) | MIC ([3]; strain SEC057) | MIC ([3]; strain SEC058) | MIC ([3]; strain SEC064) | MIC ([3]; strain SEC068) | MIC ([3]; strain SEC069) | MIC ([3]; strain SEC070) | MIC ([3]; strain SEC073) | MIC ([3]; strain SEC075) | MIC ([3]; strain SEC079) | MIC ([3]; strain SEC080)
> 40 µg/mL: MIC [2]
10 µg/mL: MIC90 [3]
0.6 µg/mL: MIC [1]
2.5 µg/mL: MIC50 [3]
completely inactive: antibacterial activity in double knockout (in words) ([2]; ΔnfsA and ΔnfsB double knockout strain)
0.06 µg/mL: MIC ([3]; strain SEC017)

O=C1CN(/N=C/c2ccc([N+](=O)[O-])o2)C(=O)N1 [nitrofurantoin, reference compound]
160 µg/mL: MIC ([3]; strain SEC020) | MIC ([3]; strain SEC052)
about 8 fold: fold elevation of MIC in the double knockout ([2]; ∆nfsA & ∆nfsB vs WT)
5 to 160 µg/mL: MIC Range [3]
40 µg/mL: MIC ([3]; strain SEC003) | MIC ([3]; strain SEC005) | MIC ([3]; strain SEC007) | MIC ([3]; strain SEC011) | MIC ([3]; strain SEC016) | MIC ([3]; strain SEC019) | MIC ([3]; strain SEC025) | MIC ([3]; strain SEC035) | MIC ([3]; strain SEC036) | MIC ([3]; strain SEC040) | MIC ([3]; strain SEC047) | MIC ([3]; strain SEC048) | MIC ([3]; strain SEC049) | MIC ([3]; strain SEC051) | MIC ([3]; strain SEC053) | MIC ([3]; strain SEC057) | MIC ([3]; strain SEC061) | MIC ([3]; strain SEC063) | MIC ([3]; strain SEC064) | MIC ([3]; strain SEC073) | MIC ([3]; strain SEC074) | MIC ([3]; strain SEC080)
10 µg/mL: MIC ([3]; strain SEC042) | MIC ([3]; strain SEC075)
80 µg/mL: MIC90 [3] | MIC ([3]; strain SEC001) | MIC ([3]; strain SEC004) | MIC ([3]; strain SEC008) | MIC ([3]; strain SEC013) | MIC ([3]; strain SEC023) | MIC ([3]; strain SEC044) | MIC ([3]; strain SEC058) | MIC ([3]; strain SEC077) | MIC ([3]; strain SEC078)
20 µg/mL: MIC [2] | MIC50 [3] | MIC ([3]; strain SEC002) | MIC ([3]; strain SEC006) | MIC ([3]; strain SEC012) | MIC ([3]; strain SEC014) | MIC ([3]; strain SEC015) | MIC ([3]; strain SEC017) | MIC ([3]; strain SEC018) | MIC ([3]; strain SEC021) | MIC ([3]; strain SEC022) | MIC ([3]; strain SEC024) | MIC ([3]; strain SEC026) | MIC ([3]; strain SEC029) | MIC ([3]; strain SEC031) | MIC ([3]; strain SEC032) | MIC ([3]; strain SEC033) | MIC ([3]; strain SEC034) | MIC ([3]; strain SEC037) | MIC ([3]; strain SEC038) | MIC ([3]; strain SEC039) | MIC ([3]; strain SEC041) | MIC ([3]; strain SEC043) | MIC ([3]; strain SEC045) | MIC ([3]; strain SEC046) | MIC ([3]; strain SEC050) | MIC ([3]; strain SEC054) | MIC ([3]; strain SEC055) | MIC ([3]; strain SEC059) | MIC ([3]; strain SEC060) | MIC ([3]; strain SEC062) | MIC ([3]; strain SEC065) | MIC ([3]; strain SEC067) | MIC ([3]; strain SEC068) | MIC ([3]; strain SEC069) | MIC ([3]; strain SEC070) | MIC ([3]; strain SEC071) | MIC ([3]; strain SEC072) | MIC ([3]; strain SEC076) | MIC ([3]; strain SEC079)
5 µg/mL: MIC [1] | MIC ([3]; strain SEC028)

Cc1sc(NC(=O)c2ccc([N+](=O)[O-])s2)nc1-c1ccccc1 [compound 7, N-(5-Methyl-4-phenylthiazol-2-yl)-5-nitrothiophene-2-carboxamide]
> 40 µg/mL: MIC [1] | MIC [2]
4.13 °C: ∆Tm [4]

From PMC5940854, “Nitrothiophene carboxamides, a novel narrow spectrum antibacterial series: Mechanism of action and Efficacy” (Scientific Reports, 2018)
